Tests used:
Test in all cases: Test B pre-/postemergence plant response
Assay type in all cases: in vivo
Details in all cases: Preemergence
[1] = system: yellow nutsedge (Cyperus esculentus)
In short: (§1)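 Seeds were sown and sprayed preemergence, while plants at 2 to 18 cm (1- to 4-leaf stage) got postemergence sprays. Compounds were formulated in a non-phytotoxic solvent mixture with surfactant. After 13 to 15 days in a greenhouse, injury was rated visually against untreated controls, 0 (no effect) to 100 (complete control).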

[2] = system: johnsongrass (Sorghum halepense)
In short: as §1

[3] = system: common ragweed (Ambrosia elation)
In short: as §1

[4] = system: Italian ryegrass (Lolium multiflorum)
In short: as §1

[5] = system: green foxtail (Setaria viridis)
In short: as §1

[6] = system: Russian thistle (Salsola iberica)
In short: as §1

corn (Zea mays) = system: corn (Zea mays)
In short: as §1

[7] = system: goosegrass (Eleusine indica)
In short: as §1

[8] = system: pigweed (Amaranthus retroflexus)
In short: as §1

[9] = system: common (oilseed) sunflower (Helianthus annuus)
In short: as §1

[10] = system: surinam grass (Brachiaria decumbens)
In short: as §1

[11] = system: eastern black (E.B.) nightshade (Solanum ptycanthum)
In short: as §1

[12] = system: giant foxtail (Setaria faberii)
In short: as §1

[13] = 16 g ai/ha, scale 0 to 100 (0 no effect, 100 complete control)
[14] = 31 g ai/ha, scale 0 to 100 (0 no effect, 100 complete control)
[15] = 31 g ai/ha, 0 to 100 scale, 0 no effect, 100 complete control

Cc1cc(-c2ccc(Cl)cc2)nn1-c1c(OS(=O)(=O)c2cccc3ccccc23)cnn(C)c1=O [Compound 47]
85: Plant response rating, Johnsongrass [2, 15] | Plant response rating, Corn (corn (Zea mays); [15])
80: Plant response rating, Ryegrass, Italian [4, 13] | Plant response rating, Foxtail, Green [5, 13] | Surinam Grass plant response rating ([10]; 8 g ai/ha, scale 0 to 100)
75: Plant response rating, Johnsongrass [2, 13]
95: Plant response rating, Johnsongrass ([2]; 62 g ai/ha, scale 0 to 100) | Plant response rating, Corn (corn (Zea mays); 62 g ai/ha, scale 0 to 100) | Plant response rating, Surinam Grass [10, 13]
20: Plant response rating, Corn (corn (Zea mays); [13])
98: Plant response rating, Ryegrass, Italian ([4]; 62 g ai/ha, scale 0 to 100) | Plant response rating, Goosegrass [7, 13] | Plant response rating, Surinam Grass [10, 14] | Plant response rating, Foxtail, Giant [12, 13]
100: Plant response rating, Foxtail, Green [5, 15] | Plant response rating, Foxtail, Green ([5]; 62 g ai/ha, scale 0 to 100) | Plant response rating, Goosegrass [7, 15] | Plant response rating, Goosegrass ([7]; 62 g ai/ha, scale 0 to 100) | Plant response rating, Surinam Grass ([10]; 62 g ai/ha, 0 to 100 scale, 0 no effect, 100 complete control) | Plant response rating, Foxtail, Giant [12, 15] | Plant response rating, Foxtail, Giant ([12]; 62 g ai/ha, scale 0 to 100)
70: Goosegrass plant response rating ([7]; 8 g ai/ha, scale 0 to 100)
5: Foxtail, Green plant response rating ([5]; 8 g ai/ha, scale 0 to 100)
40: Plant response rating, Russian Thistle ([6]; 62 g ai/ha, scale 0 to 100)
90: Plant response rating, Ryegrass, Italian [4, 14]
0: Plant response rating, Nutsedge, Yellow [1, 13] | Plant response rating, Nutsedge, Yellow [1, 14] | Plant response rating, Nutsedge, Yellow ([1]; 62 g ai/ha, scale 0 to 100) | Nutsedge, Yellow plant response rating ([1]; 8 g ai/ha, scale 0 to 100) | Johnsongrass plant response rating ([2]; 8 g ai/ha, scale 0 to 100) | Plant response rating, Ragweed [3, 13] | Plant response rating, Ragweed [3, 14] | Plant response rating, Ragweed ([3]; 62 g ai/ha, scale 0 to 100) | Ragweed plant response rating ([3]; 8 g ai/ha, scale 0 to 100) | Ryegrass, Italian plant response rating ([4]; 8 g ai/ha, scale 0 to 100) | Plant response rating, Russian Thistle [6, 13] | Plant response rating, Russian Thistle [6, 14] | Russian Thistle plant response rating ([6]; 8 g ai/ha, scale 0 to 100) | Corn plant response rating (corn (Zea mays); 8 g ai/ha, scale 0 to 100) | Plant response rating, Pigweed [8, 14] | Plant response rating, Pigweed ([8]; 62 g ai/ha, scale 0 to 100) | Pigweed plant response rating ([8]; 8 g ai/ha, scale 0 to 100) | Plant response rating, Sunflower [9, 13] | Plant response rating, Sunflower [9, 14] | Plant response rating, Sunflower ([9]; 62 g ai/ha, scale 0 to 100) | Sunflower plant response rating ([9]; 8 g ai/ha, scale 0 to 100) | Plant response rating, Nightshade, E. B. [11, 13] | Plant response rating, Nightshade, E. B. [11, 14] | Plant response rating, Nightshade, E. B. ([11]; 62 g ai/ha, scale 0 to 100) | Nightshade, E. B. plant response rating ([11]; 8 g ai/ha, scale 0 to 100) | Foxtail, Giant plant response rating ([12]; 8 g ai/ha, scale 0 to 100)

Reference: US20100267561A1, “HERBICIDAL PYRIDAZINONE DERIVATIVES” (priority 2007, published 2010)
